Measurements from US9763445B2, “Safened herbicidal compositions comprising a pyridine carboxylic acid herbicide” (Dow AgroSciences, LLC, priority 2014, dated 2017).

How the values were obtained:
velvetleaf (ABUTH) = assay: Postemergence greenhouse trial, % visual injury on velvetleaf; format: in vivo, Abutilon theophrasti; settings: alone, 35 g/ha
Method: (§1) Seeds of the desired test plant species were planted in Sun Gro MetroMix® 306 planting mixture, which typically has a pH of 6.0 to 6.8 and an organic matter content of about 30 percent, in plastic pots with a surface area of 103.2 square centimeters (cm^2). When required to ensure good germination and healthy plants, a fungicide treatment and/or other chemical or physical treatment was applied. The plants were grown for 7-36 days (d) in a greenhouse with an approximate 14-hour (h) photoperiod which was maintained at about 23° C. during the day and 22° C. during the night. Nutrients and water were added on a regular basis and supplemental lighting was provided with overhead metal halide 1000-Watt lamps as necessary. The plants were employed for testing when they reached the second or third true leaf stage.
(§2) Weighed amounts of technical material were dissolved in a volume of 97:3 volume per volume (v/v) acetone/dimethyl sulfoxide (DMSO) to stock solutions. […] The concentrated stock solutions were diluted with an aqueous mixture of 1.5% v/v of Agri-dex crop oil concentrate to provide the appropriate application rates. Compound requirements are based upon a 12 milliliter (mL) application volume at a rate of 187 liters per hectare (L/ha). Stocks solutions of the safeners were prepared following the same procedure. Spray solutions of the safeners and experimental compound mixtures were prepared by adding the stock solutions to the appropriate amount of dilution solution to form a 12 mL spray solution in two-way combinations. Formulated compounds were applied to the plant material with an overhead Mandel track sprayer equipped with 8002E nozzles calibrated to deliver 187 L/ha over an application area of 0.503 square meters (m^2) at a spray height of 18 inches (43 centimeters (cm)) above average plant canopy. Control plants were sprayed in the same manner with the solvent blank. All herbicide application (component a) rates are in g ae/ha and all safener (component b) rates are in g ai/ha.
(§3) The treated plants and control plants were placed in a greenhouse as described above and watered by sub-irrigation to prevent wash-off of the test compounds. After 20-22 d, the condition of the test plants as compared with that of the control plants was determined visually and scored on a scale of 0 to 100 percent where 0 corresponds to no injury and 100 corresponds to complete kill. The condition of the test plants was compared with that of the control plants as determined visually and scored on a scale of 0 to 100 percent, where 0 corresponds to no injury and 100 corresponds to complete kill. Colby's equation was used to determine the herbicidal effects expected from the mixtures.
The safener cloquintocet-mexyl was combined with compound 1, compound 2, compound 4, compound 5, and compound 6, and applied to corn/maize (ZEAMX) and spring wheat (TRZAS) and the phytotoxicity of the herbicidal compositions was measured. In addition, the efficacy of the herbicidal composition on velvetleaf (ABUTH, Abutilon theophrasti), pigweed (AMARE, Amaranthus retroflexus), winter rape (BRSNW, Brassica napus), lambsquarters (CHEAL, Chenopodium album), thistle (CIRAR, Cirsium arvense), nutsedge (CYPES, Cyperus esculentus), poinsettia (EPHHL, Euphorbia heterophylla), wild buckwheat (POLCO, Polygonum convolvulus), giant foxtail (SETFA, Setaria faberi), and chickweed (STEME, Stellaria media) was evaluated.
The safener cloquintocet-mexyl was combined with compound 1, compound 2, compound 3, compound 7, compound 8, compound 9, compound 10, compound 11, compound 12, compound 13, compound 14, compound 15, compound 16, compound 17, compound 18, compound 19, and compound 20, and applied to spring wheat (TRZAS), winter wheat (TRZAW), and spring barley (HORVS) and the phytotoxicity of the herbicidal compositions was measured. […]

common sunflower (HELAN) = assay: Postemergence greenhouse trial, % visual injury on common sunflower; format: in vivo, Helianthus annuus
Method: as §1, §2, §3
The safener cloquintocet-acid and a number of agriculturally acceptable esters and salts (-mexyl, -dimethylammonium salt and -triethylammonium salt) were combined in varying ratios with compound 1 and applied to spring wheat (TRZAS), winter wheat (TRZAW), and spring barley (HORVS), and the phytotoxicity of the herbicidal compositions was measured. In addition, the efficacy of the herbicidal composition on pigweed (AMARE, Amaranthus retroflexus), nutsedge (CYPES, Cyperus esculentus), common sunflower (HELAN, Helianthus annuus), and common sorghum (SORVU, Sorghum vulgare).

giant foxtail (SETFA) = assay: Postemergence greenhouse trial, % visual injury on giant foxtail; format: in vivo, Setaria faberi; settings: alone, 35 g/ha
Method: as §1
Weighed amounts of technical material were dissolved in a volume of 97:3 volume per volume (v/v) acetone/dimethyl sulfoxide (DMSO) to stock solutions. […] The concentrated stock solutions were diluted with an aqueous mixture of 1.5% v/v of Agri-dex crop oil concentrate to provide the appropriate application rates. Compound requirements are based upon a 12 milliliter (mL) application volume at a rate of 187 liters per hectare (L/ha). […]
as §3, with “Colby's equation was used to determine the herbicidal effects expected from the mixtures.” left out
The safener cloquintocet-mexyl was combined with compound 1, compound 2, compound 4, compound 5, and compound 6, and applied to corn/maize (ZEAMX) and spring wheat (TRZAS) and the phytotoxicity of the herbicidal compositions was measured. […]

wild pansy (VIOTR) = assay: Postemergence greenhouse trial, % visual injury on wild pansy; format: in vivo, Viola tricolor
Method: as §1, §2
as §3, with “mixtures. […]” for “mixtures.”

green foxtail (SETVI) = assay: Postemergence greenhouse trial, % visual injury on green foxtail; format: in vivo, Setaria viridis

## CCCCCC(C)OC(=O)COc1ccc(Cl)c2cccnc12 (stereo not shown) [CQC-m, cloquintocet-mexyl, reference compound]
Velvetleaf (ABUTH)
  % visual injury, Ob: 0%
Common sunflower (HELAN); safener alone 2.5 g/ha
  % visual injury, observed (Ob): 0%
Common sunflower (HELAN); safener alone 5 g/ha
  % visual injury, observed (Ob): 0%
Common sunflower (HELAN); safener alone 10 g/ha
  % visual injury, observed (Ob): 0%
Common sunflower (HELAN); safener alone 20 g/ha
  % visual injury, observed (Ob): 0%
Giant foxtail (SETFA)
  % visual injury, Ob: 0%
Wild pansy (VIOTR); VIOTR, 4.375 g/ha, applied alone
  % visual injury, Ob: 0%
Wild pansy (VIOTR); VIOTR, 8.75 g/ha, applied alone
  % visual injury, Ob: 0%
Wild pansy (VIOTR); VIOTR, 17.5 g/ha, applied alone
  % visual injury, Ob: 0%
Wild pansy (VIOTR); VIOTR, 35 g/ha, applied alone
  % visual injury, Ob: 0%
Wild pansy (VIOTR); VIOTR, 70 g/ha, applied alone
  % visual injury, Ob: 0%
Wild pansy (VIOTR); VIOTR, compound 0 g/ha, CQC-m 4.375 g/ha
  % visual injury, Ob: 0%
Wild pansy (VIOTR); VIOTR, compound 0 g/ha, CQC-m 8.75 g/ha
  % visual injury, Ob: 0%
Wild pansy (VIOTR); VIOTR, compound 0 g/ha, CQC-m 17.5 g/ha
  % visual injury, Ob: 0%
Wild pansy (VIOTR); VIOTR, compound 0 g/ha, CQC-m 35 g/ha
  % visual injury, Ob: 0%
Wild pansy (VIOTR); VIOTR, compound 0 g/ha, CQC-m 70 g/ha
  % visual injury, Ob: 0%
Wild pansy (VIOTR); alone, 35 g/ha
  % visual injury, Ob: 0%

## Nc1c(F)c(-c2ccc3cc[nH]c3c2F)nc(C(=O)O)c1Cl [compound 1]
Common sunflower (HELAN); compound 1 alone 20 g/ha
  % visual injury, observed (Ob): 98%
Common sunflower (HELAN); compound 1 alone 40 g/ha
  % visual injury, observed (Ob): 100%

## Nc1cc(-c2ccc3cc[nH]c3c2F)nc(C(=O)O)c1Cl [compound 15]
Wild pansy (VIOTR); VIOTR, compound 4.375 g/ha, CQC-m 0 g/ha
  % visual injury, Ob: 0%
Wild pansy (VIOTR); VIOTR, compound 8.75 g/ha, CQC-m 0 g/ha
  % visual injury, Ob: 10%
Wild pansy (VIOTR); VIOTR, compound 17.5 g/ha, CQC-m 0 g/ha
  % visual injury, Ob: 10%
Wild pansy (VIOTR); VIOTR, compound 35 g/ha, CQC-m 0 g/ha
  % visual injury, Ob: 20%
Wild pansy (VIOTR); VIOTR, compound 70 g/ha, CQC-m 0 g/ha
  % visual injury, Ob: 30%

## Nc1c(F)c(-c2ccc3cc[nH]c3c2F)nc(C(=O)OCc2ccccc2)c1Cl [compound 2]
Velvetleaf (ABUTH)
  % visual injury, Ob: 80%
Green foxtail (SETVI); compound 2 35 + CQC-m 0 g/ha
  % visual injury, observed (Ob): 100%
Green foxtail (SETVI); compound 2 70 + CQC-m 0 g/ha
  % visual injury, observed (Ob): 97%
Green foxtail (SETVI); compound 2 140 + CQC-m 0 g/ha
  % visual injury, observed (Ob): 98%
